From US20260053861A1, “CELL COMPOSITIONS AND METHODS OF USING THE SAME” (THE REGENTS OF THE UNIVERSITY OF CALIFORNIA, priority 2022, published 2026) come the findings set out here.

Where a name gives a salt, the structure may show the parent alone.

The test system of one assay is hPSC-SCs.
Details: not given
Molecule `Cc1cc2c(C(C)C)c(O)c(O)c(C=O)c2c(O)c1-c1c(C)cc2c(C(C)C)c(O)c(O)c(C=O)c2c1O` [Gossypol] returned a z.score.t of −2.368.
The same measure, in the same setting: the value for `COc1ccc2c3c([nH]c2c1)C(C)=NCC3.Cl.O.O` [Harmaline hydrochloride dihydrate] was 1.306; that for `COc1ccc2c(c1)[nH]c1c(C)nccc12.Cl` [Harmine hydrochloride] was −1.122.
Turning to `Cc1[nH]ccc2c1[nH]c1cc(=O)ccc12` [Harmol hydrochloride monohydrate], the z.score.t is reported as −0.7233.
`CO[C@H](C)[C@](O)(C(=O)OCC1=CCN2CC[C@H](O)[C@@H]12)C(C)C` [Heliotrine] gave a z.score.t of −0.3023.
`C[N+]1(C)CCOC(O)(c2ccc(-c3ccc(C4(O)C[N+](C)(C)CCO4)cc3)cc2)C1.[Br-].[Br-]` (centres unmarked) [Hemicholinium bromide] returned a z.score.t of −0.07901.
Same read-out and setting: the value for `COc1ccc([C@@H]2CC(=O)c3c(O)cc(O[C@@H]4O[C@H](CO[C@@H]5O[C@@H](C)[C@H](O)[C@@H](O)[C@H]5O)[C@@H](O)[C@H](O)[C@H]4O)cc3O2)cc1O` [Hesperidin] was 0.2399; that for `C[N+](C)(C)CCCCCC[N+](C)(C)C.O.O.[Br-].[Br-]` [Hexamethonium dibromide dihydrate] was 0.7913.
For `CN1CCC2=C[C@H](O)[C@H]3OC(=O)c4cc5c(cc4[C@H]3[C@@H]21)OCO5` [Hippeastrine hydrobromide], the z.score.t came to 1.178.
`CN1CCCN(C(c2ccccc2)c2ccc(Cl)cc2)CC1` (centres unmarked) [Homochlorcyclizine dihydrochloride]: the z.score.t is recorded as −1.66.
Same read-out and setting: the value for `COc1ccc2c(c1OC)C(=O)O[C@@H]2[C@H]1c2cc3c(cc2CCN1C)OCO3` [Hydrastine hydrochloride] was −0.4139; that for `CN1[C@@H]2CC[C@H]1C[C@@H](OC(=O)[C@H](CO)c1ccccc1)C2` [Hyoscyamine (L)] was −0.528; that for `O=C(NCNC(=O)NC1C(=O)NC(=O)N1CO)NC1C(=O)NC(=O)N1CO` (centres unmarked) [Imidurea] was 1.224.
On the same count and under the same terms, the value for `CC(=O)N(CC(O)CN(C(C)=O)c1c(I)c(C(=O)NCC(O)CO)c(I)c(C(=O)NCC(O)CO)c1I)c1c(I)c(C(=O)NCC(O)CO)c(I)c(C(=O)NCC(O)CO)c1I` (centres unmarked) [Iodixanol] was 0.7539; that for `CC(C)[N+]1(C)[C@@H]2CC[C@H]1CC(OC(=O)C(CO)c1ccccc1)C2.[Br-]` (some centres unmarked) [Ipratropium bromide] was −0.649.

Still in this assay, the particulars now being: HTS viability of hPSC-SCs in the presence of 30 mM glucose; Prestwick library; Table S4.
Consider `C[N+]1(C)CCC(OC(=O)C(O)(c2ccccc2)C2CCCC2)C1` (centres unmarked) [Glycopyrrolate], for which the z.score.t is listed as −0.1913.
Consider `CN(C)Cc1c[nH]c2ccccc12` [Gramine], for which the z.score.t was 1.018.
The same measure, in the same setting: the value for `Cn1c(-c2ccc3c(c2)OCO3)cc(=O)c2ccccc21` [Graveoline] was 0.495; that for `COC1=CC(=O)C[C@@H](C)[C@]12Oc1c(Cl)c(OC)cc(OC)c1C2=O` [Griseofulvin] was −0.636; that for `COc1ccccc1OCC(O)CO` (centres unmarked) [Guaifenesin] was −0.3023.
With `N=C(N)N/N=C/c1c(Cl)cccc1Cl` [Guanabenz acetate], the z.score.t amounted to 0.5179.
For the molecule `N=C(N)NC(=O)Cc1c(Cl)cccc1Cl` [Guanfacine hydrochloride], the z.score.t was 0.9047.
For `CC1(C)O[C@@H]2C[C@H]3[C@@H]4CCC5=CC(=O)CC[C@]5(C)[C@@]4(F)[C@@H](O)C[C@]3(C)[C@]2(C(=O)CCl)O1` [Halcinonide], the z.score.t came to 1.238.
Same read-out and setting: under `CCCCN(CCCC)CCC(O)c1cc2c(Cl)cc(Cl)cc2c2cc(C(F)(F)F)ccc12` (centres unmarked) [Halofantrine hydrochloride] stands −1.422; under `O=C(CCCN1CCC(O)(c2ccc(Cl)cc2)CC1)c1ccc(F)cc1` [Haloperidol], −1.111.
In the case of `CC1=NCCc2c1[nH]c1cc(O)ccc21.Cl.O.O` [Harmalol hydrochloride dihydrate], the z.score.t was −0.7953.
With `C[C@]1(OC(=O)/C=C/c2ccccc2)C[C@@H](O)[C@]2(O)C=CO[C@@H](O[C@@H]3O[C@H](CO)[C@@H](O)[C@H](O)[C@H]3O)[C@@H]21` [Harpagoside], the z.score.t is recorded as −0.8347.
For the molecule `CC(N)CCCC(C)(C)O` (centres unmarked) [Heptaminol hydrochloride], the z.score.t stood at 0.7415.
Consider `COc1ccc([C@@H]2CC(=O)c3c(O)cc(O)cc3O2)cc1O` [Hesperetin], for which the z.score.t is 1.785.
Regarding `CC[C@H](c1ccc(O)cc1)[C@@H](CC)c1ccc(O)cc1` [Hexestrol], the z.score.t was determined as 0.1469.
`CCCCC(CC)CN1CN(CC(CC)CCCC)CC(C)(N)C1` (centres unmarked) [Hexetidine]: the z.score.t is −1.372.
The same measure, in the same setting: under `CC(CNC1CCCCC1)OC(=O)c1ccccc1` (centres unmarked) [Hexylcaine hydrochloride] stands −0.6194; under `CC1CC(OC(=O)c2ccccc2O)CC(C)(C)C1` (centres unmarked) [Homosalate], −0.751.
Take `CCN(CC)CCNc1ccc(CO)c2sc3ccccc3c(=O)c12` [Hycanthone]: the z.score.t is −0.2904.
With `NNc1nncc2ccccc12` [Hydralazine hydrochloride], the z.score.t worked out at 1.472.
On to `CN1CCc2cc3c(cc2C1O)OCO3` (centres unmarked) [Hydrastinine hydrochloride], for which the z.score.t is 1.785.
Same read-out and setting: the value for `NS(=O)(=O)c1cc2c(cc1Cl)NCNS2(=O)=O` [Hydrochlorothiazide] was 0.1742; that for `C[C@]12CCC(=O)C=C1CC[C@@H]1[C@@H]2[C@@H](O)C[C@@]2(C)[C@H]1CC[C@]2(O)C(=O)CO` [Hydrocortisone base] was 1.76.
The same measure, in the same setting: the value for `COc1c2c(cc3c1OCO3)CCN(C)C2` [Hydrocotarnine hydrobromide] was 1.168; that for `NS(=O)(=O)c1cc2c(cc1C(F)(F)F)NCNS2(=O)=O` [Hydroflumethiazide] was −0.1092; that for `CC[C@H]1CN2CC[C@H]1C[C@H]2[C@H](O)c1ccnc2ccc(OC)cc12` [Hydroquinine hydrobromide hydrate] was 0.1131.
Same read-out and setting: the value for `OCCOCCN1CCN(C(c2ccccc2)c2ccc(Cl)cc2)CC1` (centres unmarked) [Hydroxyzine dihydrochloride] was −0.3011; that for `Cc1cc(=O)oc2cc(O)ccc12` [Hymecromone] was 0.9525; that for `c1ccc2c(c1)OCC(C1=NCCN1)O2` (centres unmarked) [Idazoxan hydrochloride] was −0.03362.
For the molecule `O=c1[nH]c(=O)n([C@H]2C[C@H](O)[C@@H](CO)O2)cc1I` [Idoxuridine], the z.score.t is recorded as 0.8757.
Turning to `O=P1(NCCCl)OCCCN1CCCl` (centres unmarked) [Ifosfamide], the z.score.t is recorded as 0.1469.
Still for that read-out and setting: the value for `C[C@@H](O)[C@H]1C(=O)N2C(C(=O)O)=C(SCCN=CN)C[C@H]12` [Imipenem] was 0.767; that for `CN(C)CCCN1c2ccccc2CCc2ccccc21` [Imipramine hydrochloride] was −0.7013.
On the same count and under the same terms, the value for `CC1Cc2ccccc2N1NC(=O)c1ccc(Cl)c(S(N)(=O)=O)c1` (centres unmarked) [Indapamide] was 0.02534; that for `COc1ccc2c(c1)c(CC(=O)O)c(C)n2C(=O)c1ccc(Cl)cc1` [Indomethacin] was 1.045.
On the same count and under the same terms, the value for `CC(C(=O)O)c1ccc(N2Cc3ccccc3C2=O)cc1` (centres unmarked) [Indoprofen] was 0.1916; that for `CC(=O)N(CC(C)C(=O)O)c1c(I)cc(I)c(N)c1I` (centres unmarked) [Iocetamic acid] was 0.9178.
For the molecule `O=C(CCCCC(=O)Nc1c(I)cc(I)c(C(=O)O)c1I)Nc1c(I)cc(I)c(C(=O)O)c1I` [Iodipamide], the z.score.t came to 0.5976.
On the same count and under the same terms, the value for `CC(=O)N(CC(O)CO)c1c(I)c(C(=O)NCC(O)CO)c(I)c(C(=O)NCC(O)CO)c1I` (centres unmarked) [Iohexol] was −0.07901.
`C[C@H](O)C(=O)Nc1c(I)c(C(=O)NC(CO)CO)c(I)c(C(=O)NC(CO)CO)c1I` [Iopamidol]: the z.score.t is given as −1.025.
On the same count and under the same terms, under `CCC(Cc1c(I)cc(I)c(N)c1I)C(=O)O` (centres unmarked) [Iopanoic acid] stands 1.279; under `COCC(=O)Nc1c(I)c(C(=O)NCC(O)CO)c(I)c(C(=O)N(C)CC(O)CO)c1I` (centres unmarked) [Iopromide], −0.5992.
The same measure, in the same setting: under `O=C(NCC(O)CO)c1c(I)c(C(=O)NCC(O)CO)c(I)c(N(CCO)C(=O)CO)c1I` (centres unmarked) [Ioversol] stands −0.5789; under `CNC(=O)c1c(I)c(C(=O)NCC(=O)Nc2c(I)c(C(=O)O)c(I)c(C(=O)NCCO)c2I)c(I)c(N(C)C(C)=O)c1I` [Ioxaglic acid], 1.475.
In the case of `Cc1cc(C(=O)NNCc2ccccc2)no1` [Isocarboxazid], the z.score.t is recorded as −0.9569.
For the molecule `Clc1ccc(C(Cn2ccnc2)OCc2c(Cl)cccc2Cl)c(Cl)c1` (centres unmarked) [Isoconazole], the z.score.t is given as −1.91.
Same read-out and setting: under `COc1ccc2c(c1O)-c1c(OC)c(OC)cc3c1[C@H](C2)N(C)CC3` [Isocorydine (+)] stands 1.845.
For `CC(=O)OCC(=O)[C@@]1(O)CC[C@H]2[C@@H]3CCC4=CC(=O)C=C[C@]4(C)[C@@]3(F)[C@@H](O)C[C@@]21C` [Isoflupredone acetate], the z.score.t was −0.3156.
The same measure, in the same setting: the value for `CNC(C)CCC=C(C)C.CNC(C)CCC=C(C)C.O=C(O)[C@@H](O)[C@H](O)[C@H](O)[C@@H](O)C(=O)O` [Isometheptene mucate] was 1.27.
Same read-out and setting: under `NNC(=O)c1ccncc1` [Isoniazid] stands 0.5041; under `CC(C)[N+](C)(CCC(C(N)=O)(c1ccccc1)c1ccccc1)C(C)C` [Isopropamide iodide], 0.3675; under `Cc1c(NC(C)C)c(=O)n(-c2ccccc2)n1C.Cl` [Isopyrin hydrochloride], −0.2359.
On the same count and under the same terms, under `CC1=C(/C=C/C(C)=C/C=C/C(C)=C\C(=O)O)C(C)(C)CCC1` [Isotretinoin] stands 0.4346; under `Cc1cc(NC(=O)C2=C(O)c3ccccc3S(=O)(=O)N2C)no1` [Isoxicam], 1.24.
On to `CC(COc1ccccc1)NC(C)C(O)c1ccc(O)cc1` (centres unmarked) [Isoxsuprine hydrochloride], for which the z.score.t is on record as −0.1687.
On the same count and under the same terms, the value for `COC(=O)C1=C(C)NC(C)=C(C(=O)OC(C)C)C1c1cccc2nonc12` (centres unmarked) [Isradipine] was 0.6428.
